Results reported in PMC9321663, “The DevTox Germ Layer Reporter Platform: An Assay Adaptation of the Human Pluripotent Stem Cell Test” (Toxics, 2022).
Like-named read-outs stand apart in the source and are kept apart here.

Legend:
H9 human ESC line = conditions: cited from earlier work
[1] = test system: SOX2 (ectoderm and pluripotency marker) in RUES2-GLR cells; assay: DevTox GLR-Endo assay: increase in percent SOX2-positive cells (AEID 3095, Sox2_up); conditions: for AC50 / Emax: Homo sapiens; for AC50: read-out: ga (winning model); for Emax: read-out: tp (winning model); for MAX_MEAN: tcpl plot AEID3095, maximum mean response; for MAX_MED: tcpl plot AEID3095, maximum median response
[2] = cited from earlier work; for Development Toxicant Classification: Table S2; for Classification: developmental toxicant classification (Teratogen / Non-Teratogen) of reference and training chemicals, ref DOI per chemical: 10.1093/toxsci/kft239, 10.1093/toxsci/kfaa014, 10.1177/026119290203000204, 10.1038/s41598-020-59542-x; for DT Class.: developmental toxicant classification, chemicals common with hPST
RUES2-GLR cells = assay: DevTox GLR-Endo assay: decrease in total cell count, cytotoxicity (AEID 3098, CellCount_dn); conditions: for Emax: Homo sapiens, read-out: Cell Count % Max Inhibition
in vitro = conditions: human
[3] = test system: SOX17 (endoderm marker) in RUES2-GLR cells; assay: DevTox GLR-Endo assay: increase in percent SOX17-positive cells (AEID 3093, Sox17_up); assay type: cell-based, human; conditions: for Emax: Homo sapiens; for HIT−CALL: tcpl plot AEID3093, COFF 20.3
Method: (§1) The total test chemical incubation period was 48 h.
(§2) (Supplementary Materials).

[4] = test system: SOX17 (endoderm marker) in RUES2-GLR cells; assay: DevTox GLR-Endo assay: decrease in percent SOX17-positive cells (AEID 3094, Sox17_dn); conditions: for Hit Call: Table S2, SOX17-positive cells, cutoff 3*bmad; for DevTox ACC: Table S2, percent SOX17-positive cells; for HIT−CALL: tcpl plot AEID3094, COFF 20.3
Summary of the method: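 RUES2-GLR cells under endoderm differentiation exposed to test chemicals for 48 h in total, with 0.2% DMSO solvent control and SB431542 (1 µM) as developmental-toxicant control. Endpoints: decrease in total cell count and in percent SOX17-positive cells; n = 4 biological replicates minimum.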

[5] = test system: SOX17 in H9 human ESC line; conditions: SOX17 half-maximal inhibition concentration; read-out: hPST IC50; cited from earlier work
[6] = test system: BRA (mesoderm marker) in RUES2-GLR cells; assay: DevTox GLR-Endo assay: increase in percent BRA-positive cells (AEID 3096, Bra_up); assay type: cell-based, human
Method: as §1, §2

[7] = cytotoxicity half-maximal concentration
[8] = tcpl plot AEID3093, maximum mean response, read-out: MAX_MEAN
[9] = tcpl plot AEID3093, maximum median response, read-out: MAX_MED
[10] = Homo sapiens, 48 h, read-out: DevTox-GLR Endo AC50 (µM)
[11] = Homo sapiens, read-out: DevTox % Max Inhibition
[12] = Homo sapiens, read-out: MAX_MEAN
[13] = Homo sapiens, read-out: MAX_MED
[14] = Homo sapiens, read-out: tp (winning model)
[15] = read-out: DevTox-GLR Endo AC50, SOX17 half-maximal activity concentration, 48 h exposure

| Structure (SMILES) | hPST TC50 (H9 human ESC line; [7]) [µM] | hPST TC50 (H9 human ESC line; hPST cytotoxicity) [µM] | AC50 [1] [µM] | Emax [1] [%] | MAX_MEAN [1] [Percent Activity] | MAX_MED [1] [Percent Activity] | Development Toxicant Classification [2] | Classification [2] | DT Class. [2] | Emax (RUES2-GLR cells) [%] | Emax [3, 8] [%] | Emax [3, 9] [%] | HIT−CALL [3] | Emax [4, 11] [%] | Emax [4, 12] [%] | Emax [4, 13] [%] | Hit Call [4] | DevTox ACC ([4]; 48 h exposure) [µM] | HIT−CALL [4] | IC50 [5] [µM] | also measured |
| --- | --- | --- | --- | --- | --- | --- | --- | --- | --- | --- | --- | --- | --- | --- | --- | --- | --- | --- | --- | --- | --- |
| NC(=O)c1ccc(N)nc1 [6-Aminonicotinamide, 6−aminopyridine−3−carboxamide] | 8 | 8 | 309 | 9.6 | 4.77 | 4.39 | Positive | Teratogen | Pos | 89.9 | 2.7 | 3 | 0 | 101 | 101 | 101 | Positive | 12.5605 | 1 | 7 | Cell Count ACC (RUES2-GLR cells; Table S2, 48 h exposure): 20.3443 µM; CC50 (in vitro): 23.9 µM; AC50 [4, 10]: 16.6 µM; AC50 ([4]; Homo sapiens, read-out: ga (winning model)): 16.6 µM; Emax [4, 14]: 101%; SOX17 ACC relative to cytotoxic concentration (in words) ([4]; training set, ACC versus cell count ACC): below cytotoxic concentrations |
| COc1ccc2nc([S@@+]([O-])Cc3ncc(C)c(OC)c3C)[nH]c2c1 [Esomeprazole] | 101 | 101 | 69.2 | 17.4 | 23.9 | 21.6 | Negative | Non-Teratogen | Neg | 94 | 0.101 | 1.23 | 0 | 101 | 101 | 101 | Positive | 12.9286 | 1 | 32 | Cell Count ACC (RUES2-GLR cells; human, 48 h): 28.1982 µM; CC50 at 48 h (in vitro; RUES2-GLR cells under directed endoderm differentiation): 38.5 µM; SOX17 ACC relative to cytotoxic concentration (in words) [4]: below cytotoxic concentrations; hit call designation (in words) ([4]; DevTox GLR-Endo prediction against developmental toxicant classification): false positive; AC50 ([4]; Homo sapiens, 48 h, read-out: DevTox-GLR Endo AC50 (µM), SOX17 half-maximal activity concentration, 48 h exposure): 34 µM; AC50 ([4]; Homo sapiens, read-out: ga (winning model), tcpl plot AEID3094, gain parameter of winning curve fit (log concentration, µM axis), hit calls only (converted)): 33.9 µM; Emax ([4]; Homo sapiens, read-out: maximum observed effect level class (% max inhibition)): 80 to 100%; Emax [4, 14]: 123%; AC50 [4, 15]: 33.8 µM |
| CC1=C(/C=C/C(C)=C/C=C/C(C)=C\C(=O)O)C(C)(C)CCC1 | 140 | 140 |  |  | 47.5 | 48.5 | Positive | Teratogen | Pos |  |  |  | 0 |  |  |  | Positive | 0.02117 | 1 | 0.2 | ga (winning model) ([1]; tcpl plot AEID3095, gain parameter of winning curve fit (log concentration, µM axis), hit calls only): 1.54; tp (winning model) ([1]; tcpl plot AEID3095, top of winning curve fit (Hill or gain-loss), hit calls only): 39.6; Cell Count ACC (RUES2-GLR cells): 4.122 µM; Cell Count % Max Inhibition (RUES2-GLR cells; Table S2, cell count relative to DMSO): 97.7228%; CC50 (RUES2-GLR cells; read-out: DevTox-GLR Endo CC50, cell count half-maximal concentration, 48 h exposure): 10.2 µM; MAX_MEAN ([3]; tcpl plot AEID3093, maximum mean response): −11.9 Percent Activity; MAX_MED ([3]; tcpl plot AEID3093, maximum median response): −11.9 Percent Activity; SOX17 ACC relative to cytotoxic concentration (in words) [4]: below cytotoxic concentrations; DevTox % Max Inhibition ([4]; Table S2, percent SOX17-positive cells relative to DMSO): 100.964%; AC50 [4, 15]: 0.16 µM; ga (winning model) ([4]; tcpl plot AEID3094, gain parameter of winning curve fit (log concentration, µM axis), hit calls only): −0.807; MAX_MEAN ([4]; tcpl plot AEID3094, maximum mean response): 101 Percent Activity; MAX_MED ([4]; tcpl plot AEID3094, maximum median response): 101 Percent Activity; tp (winning model) ([4]; tcpl plot AEID3094, top of winning curve fit (Hill or gain-loss), hit calls only): 100 |
| Cn1c(=O)c2c(ncn2C)n(C)c1=O [Caffeine] |  |  |  |  | 0.413 | 0.416 |  |  |  | 10.3 | 9.91 | 11 | 0 | 9.41 | 6.68 | 9.41 | Negative | >200 | 0 | > 400 | HIT−CALL ([6]; tcpl plot AEID3096, COFF 0.774): 1; MAX_MEAN ([6]; tcpl plot AEID3096, maximum mean response): 1.09 Percent Activity; Cell Count ACC (RUES2-GLR cells; human, 48 h): >200 µM; CC50 at 48 h (in vitro): > 200 µM; AC50 [4, 10]: > 200 µM |
